Data taken from ChEMBL document CHEMBL4257509, “Effect of isouronium/guanidinium substitution on the efficacy of a series of novel anti-cancer agents” (Medchemcomm, 2018).
Activity calls are given as the source filed them. The calls are words filed in the database; no cut-off is given here.

Legend:
Homo sapiens = organism: Homo sapiens; experiment: Inhibition of ERK phosphorylation in human HL60 cells at 10 uM after 16 hrs by Western blot analysis; type: cell-based
HeLa = experiment: Cytotoxicity against human HeLa cells after 72 hrs by alamar blue assay; type: functional, cell-based
MCF7 [1] = experiment: Inhibition of ERK phosphorylation in human MCF7 cells at 10 uM after 16 hrs by Western blot analysis; type: cell-based
MCF7 [2] = experiment: Cytotoxicity against human MCF7 cells after 72 hrs by alamar blue assay; type: functional, cell-based; conditions: MCF7, 72 h
HL-60 [3] = experiment: Cytotoxicity against human HL60 cells after 72 hrs by alamar blue assay; type: functional, cell-based; conditions: HL-60, 72 h
MCF7 [4] = experiment: Effect on total ERK expression in human MCF7 cells after 16 hrs by Western blot analysis; type: cell-based; conditions: mcf7, 16 h
HL-60 [5] = experiment: Effect on total ERK expression in human HL60 cells after 16 hrs by Western blot analysis; type: cell-based; conditions: hl-60, 16 h

CNC(=O)c1cc(Oc2ccc(NC(=O)Nc3ccc(Cl)c(C(F)(F)F)c3)cc2)ccn1 [SORAFENIB]
inhibition (Homo sapiens): Active
IC50 (HeLa): 4.59 µM
inhibition (MCF7 [1]): Active
IC50 (MCF7 [2]): 3.07 µM
IC50 (HL-60 [3]): 2.59 µM
Activity (MCF7 [4]): Non-Toxic
Activity (HL-60 [5]): Non-Toxic

N=C(N)Oc1ccc(Oc2cccc(NC(=O)c3ccc(Cl)c(C(F)(F)F)c3)c2)cc1
IC50 (HeLa): 83.6 µM
IC50 (MCF7 [2]): 28.7 µM
IC50 (HL-60 [3]): 35.6 µM

Cl.Cl.N=C(Nc1cccc(Oc2ccc(OC(=N)N)cc2)c1)Nc1ccc(Cl)c(C(F)(F)F)c1
inhibition (Homo sapiens): Active
IC50 (HeLa): 3.35 µM
inhibition (MCF7 [1]): Active
IC50 (MCF7 [2]): 4.68 µM
IC50 (HL-60 [3]): 5.49 µM
Activity (MCF7 [4]): Non-Toxic
Activity (HL-60 [5]): Non-Toxic

N=C(N)Nc1ccc(Oc2cccc(NC(=O)c3ccc(Cl)c(C(F)(F)F)c3)c2)cc1
IC50 (HeLa): 11.3 µM
IC50 (MCF7 [2]): 20.8 µM
IC50 (HL-60 [3]): 28.2 µM

Cl.Cl.N=C(N)Nc1ccc(Oc2cccc(NC(=N)Nc3ccc(Cl)c(C(F)(F)F)c3)c2)cc1
inhibition (Homo sapiens): inactive
IC50 (HeLa): 9.48 µM
inhibition (MCF7 [1]): Active
IC50 (MCF7 [2]): 9.84 µM
Activity (MCF7 [4]): Non-Toxic
Activity (HL-60 [5]): Non-Toxic
